Reference: patent US9446039B2, “Aminoheteroaryl compounds as MTH1 inhibitors” (CEMM—FORSCHUNGSZENTRUM FÜR MOLEKULARE MEDIZIN GMBH, priority 2012, dated 2016)

Legend:
Assay type in all cases: binding
[1] = molecular target: SW480 colon carcinoma cells lysate proteins (Homo sapiens, UniProt P06753); conditions: PreyGene TPM3
[2] = molecular target: T1, SW480 colon carcinoma cells lysate proteins (Homo sapiens, UniProt Q9NSD9); conditions: PreyGene FARSB
T1 sequence (Q9NSD9 1-589): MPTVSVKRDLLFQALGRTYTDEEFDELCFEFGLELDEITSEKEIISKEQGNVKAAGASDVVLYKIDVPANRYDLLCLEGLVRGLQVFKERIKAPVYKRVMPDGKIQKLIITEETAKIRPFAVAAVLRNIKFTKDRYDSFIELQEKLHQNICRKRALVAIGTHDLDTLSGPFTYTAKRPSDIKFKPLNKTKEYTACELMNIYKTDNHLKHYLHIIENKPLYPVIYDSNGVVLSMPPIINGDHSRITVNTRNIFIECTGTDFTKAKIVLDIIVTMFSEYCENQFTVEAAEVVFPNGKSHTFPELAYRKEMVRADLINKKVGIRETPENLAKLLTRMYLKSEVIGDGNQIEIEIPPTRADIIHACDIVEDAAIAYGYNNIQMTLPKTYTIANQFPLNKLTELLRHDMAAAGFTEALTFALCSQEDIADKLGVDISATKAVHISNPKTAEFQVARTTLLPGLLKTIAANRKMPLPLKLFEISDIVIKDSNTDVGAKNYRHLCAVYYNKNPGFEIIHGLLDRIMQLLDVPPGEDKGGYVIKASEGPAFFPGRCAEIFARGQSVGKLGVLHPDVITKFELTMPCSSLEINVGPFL

[3] = molecular target: SW480 colon carcinoma cells lysate proteins (Homo sapiens, UniProt P62826); conditions: PreyGene RAN
[4] = molecular target: SW480 colon carcinoma cells lysate proteins (Homo sapiens, UniProt Q14974); conditions: PreyGene KPNB1
[5] = molecular target: T2, SW480 colon carcinoma cells lysate proteins (Homo sapiens, UniProt P22234); conditions: PreyGene PAICS
T2 sequence (P22234 1-425): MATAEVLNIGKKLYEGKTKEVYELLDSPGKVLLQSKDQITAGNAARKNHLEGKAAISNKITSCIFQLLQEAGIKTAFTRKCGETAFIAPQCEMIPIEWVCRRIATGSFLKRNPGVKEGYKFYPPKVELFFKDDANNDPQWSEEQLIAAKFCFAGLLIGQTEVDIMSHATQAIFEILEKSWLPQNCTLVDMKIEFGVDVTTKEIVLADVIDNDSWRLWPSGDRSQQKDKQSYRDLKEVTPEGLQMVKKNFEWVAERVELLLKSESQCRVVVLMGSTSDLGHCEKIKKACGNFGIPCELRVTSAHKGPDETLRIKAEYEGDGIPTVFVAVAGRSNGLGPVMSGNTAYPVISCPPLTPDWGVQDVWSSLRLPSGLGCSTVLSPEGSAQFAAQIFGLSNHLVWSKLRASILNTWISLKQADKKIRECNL

[6] = molecular target: SW480 colon carcinoma cells lysate proteins (Homo sapiens, UniProt Q16555); conditions: PreyGene DPYSL2
[7] = molecular target: SW480 colon carcinoma cells lysate proteins (Homo sapiens, UniProt O15372); conditions: PreyGene EIF3H
[8] = molecular target: SW480 colon carcinoma cells lysate proteins (Homo sapiens, UniProt O14602); conditions: PreyGene EIF1AY
[9] = molecular target: T3, SW480 colon carcinoma cells lysate proteins (Homo sapiens, UniProt P00558); conditions: PreyGene PGK1
T3 sequence (P00558 1-417): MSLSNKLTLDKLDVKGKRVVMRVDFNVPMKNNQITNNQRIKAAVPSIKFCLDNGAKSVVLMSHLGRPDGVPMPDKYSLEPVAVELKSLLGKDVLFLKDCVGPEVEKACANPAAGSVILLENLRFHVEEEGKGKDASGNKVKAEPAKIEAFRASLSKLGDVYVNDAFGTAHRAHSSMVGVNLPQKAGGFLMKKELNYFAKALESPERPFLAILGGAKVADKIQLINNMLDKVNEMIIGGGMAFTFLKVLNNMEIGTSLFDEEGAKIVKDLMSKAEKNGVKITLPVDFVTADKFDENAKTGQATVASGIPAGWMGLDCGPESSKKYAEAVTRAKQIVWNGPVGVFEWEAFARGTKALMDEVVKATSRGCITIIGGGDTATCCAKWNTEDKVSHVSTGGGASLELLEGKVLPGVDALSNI

SW480 colon carcinoma cells lysate proteins (Homo sapiens, UniProt O15372), sequence (O15372 whole entry): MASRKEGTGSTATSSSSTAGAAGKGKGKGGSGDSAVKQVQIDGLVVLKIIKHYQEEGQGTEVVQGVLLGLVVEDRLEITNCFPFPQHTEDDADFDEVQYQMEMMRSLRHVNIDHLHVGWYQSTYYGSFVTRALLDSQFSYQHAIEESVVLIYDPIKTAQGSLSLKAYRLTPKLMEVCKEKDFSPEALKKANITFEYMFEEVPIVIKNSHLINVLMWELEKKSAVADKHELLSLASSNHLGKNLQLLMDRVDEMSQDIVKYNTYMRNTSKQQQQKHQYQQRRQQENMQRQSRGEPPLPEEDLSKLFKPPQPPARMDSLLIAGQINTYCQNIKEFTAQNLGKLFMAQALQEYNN
SW480 colon carcinoma cells lysate proteins (Homo sapiens, UniProt P06753), sequence (P06753 whole entry): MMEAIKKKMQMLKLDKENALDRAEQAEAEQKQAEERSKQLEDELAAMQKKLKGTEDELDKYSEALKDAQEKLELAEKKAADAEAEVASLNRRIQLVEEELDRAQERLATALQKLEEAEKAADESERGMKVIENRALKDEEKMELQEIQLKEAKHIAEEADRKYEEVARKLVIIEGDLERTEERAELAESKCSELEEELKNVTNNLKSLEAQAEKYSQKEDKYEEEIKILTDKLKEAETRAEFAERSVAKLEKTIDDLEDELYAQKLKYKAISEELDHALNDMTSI
SW480 colon carcinoma cells lysate proteins (Homo sapiens, UniProt O14602), sequence (O14602 whole entry): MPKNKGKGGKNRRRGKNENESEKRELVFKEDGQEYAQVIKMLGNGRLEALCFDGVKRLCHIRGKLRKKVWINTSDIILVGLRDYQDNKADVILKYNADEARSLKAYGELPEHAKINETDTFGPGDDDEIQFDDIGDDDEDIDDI
SW480 colon carcinoma cells lysate proteins (Homo sapiens, UniProt Q14974), sequence (Q14974 whole entry): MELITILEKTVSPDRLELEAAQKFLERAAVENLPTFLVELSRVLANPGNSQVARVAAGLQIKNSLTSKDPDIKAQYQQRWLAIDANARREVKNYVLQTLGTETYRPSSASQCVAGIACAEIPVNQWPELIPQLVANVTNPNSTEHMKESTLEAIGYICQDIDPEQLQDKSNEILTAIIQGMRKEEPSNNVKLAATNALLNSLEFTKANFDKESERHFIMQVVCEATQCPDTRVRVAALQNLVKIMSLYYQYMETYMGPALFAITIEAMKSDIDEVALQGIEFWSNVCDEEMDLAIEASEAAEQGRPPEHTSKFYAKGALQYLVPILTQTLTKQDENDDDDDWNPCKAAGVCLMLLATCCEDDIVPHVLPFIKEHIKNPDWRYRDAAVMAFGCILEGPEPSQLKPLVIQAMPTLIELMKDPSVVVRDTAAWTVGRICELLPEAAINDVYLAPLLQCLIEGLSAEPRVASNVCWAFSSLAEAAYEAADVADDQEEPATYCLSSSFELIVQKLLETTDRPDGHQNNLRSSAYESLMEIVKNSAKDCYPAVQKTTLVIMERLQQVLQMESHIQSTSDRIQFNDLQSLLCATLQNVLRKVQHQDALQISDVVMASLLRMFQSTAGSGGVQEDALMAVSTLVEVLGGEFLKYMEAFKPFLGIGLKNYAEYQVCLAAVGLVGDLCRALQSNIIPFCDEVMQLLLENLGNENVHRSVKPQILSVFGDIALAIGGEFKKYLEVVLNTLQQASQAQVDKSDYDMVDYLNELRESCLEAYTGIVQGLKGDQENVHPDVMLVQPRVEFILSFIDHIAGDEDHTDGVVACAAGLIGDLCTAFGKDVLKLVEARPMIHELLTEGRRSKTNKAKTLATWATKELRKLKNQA

C[C@H](Oc1cc(-c2cnn(C3CCNCC3)c2)cnc1N)c1c(Cl)ccc(F)c1Cl [(5)-crizotinib]
AvgP [1]: 0.4204 | SC.Exp. 1-1 [1]: 2 | SC.Exp. 1-2 [1]: 3 | SC.Exp. 2-1 [1]: 0 | SC.Exp. 2-2 [1]: 0 | Sum (SC.Exp.) [1]: 5 | AvgP [2]: 0.3413 | SC.Exp. 1-1 [2]: 3 | SC.Exp. 1-2 [2]: 2 | SC.Exp. 2-1 [2]: 0 | SC.Exp. 2-2 [2]: 0 | Sum (SC.Exp.) [2]: 5 | AvgP [3]: 0.3036 | SC.Exp. 1-1 [3]: 5 | SC.Exp. 1-2 [3]: 6 | SC.Exp. 2-1 [3]: 0 | SC.Exp. 2-2 [3]: 0 | Sum (SC.Exp.) [3]: 11 | AvgP [4]: 0.5773 | SC.Exp. 1-1 [4]: 7 | SC.Exp. 1-2 [4]: 6 | SC.Exp. 2-1 [4]: 1 | SC.Exp. 2-2 [4]: 0 | Sum (SC.Exp.) [4]: 14 | AvgP [5]: 0.4488 | SC.Exp. 1-1 [5]: 7 | SC.Exp. 1-2 [5]: 5 | SC.Exp. 2-1 [5]: 0 | SC.Exp. 2-2 [5]: 0 | Sum (SC.Exp.) [5]: 12 | AvgP [6]: 0.3678 | SC.Exp. 1-1 [6]: 6 | SC.Exp. 1-2 [6]: 4 | SC.Exp. 2-1 [6]: 0 | SC.Exp. 2-2 [6]: 0 | Sum (SC.Exp.) [6]: 10 | AvgP [7]: 0.2043 | SC.Exp. 1-1 [7]: 3 | SC.Exp. 1-2 [7]: 0 | SC.Exp. 2-1 [7]: 0 | SC.Exp. 2-2 [7]: 0 | Sum (SC.Exp.) [7]: 3 | AvgP [8]: 0.3949 | SC.Exp. 1-1 [8]: 2 | SC.Exp. 1-2 [8]: 3 | SC.Exp. 2-1 [8]: 0 | SC.Exp. 2-2 [8]: 0 | Sum (SC.Exp.) [8]: 5 | AvgP [9]: 0.2466 | SC.Exp. 1-1 [9]: 14 | SC.Exp. 1-2 [9]: 12 | SC.Exp. 2-1 [9]: 0 | SC.Exp. 2-2 [9]: 0 | Sum (SC.Exp.) [9]: 26
